From PubChem BioAssay AID1259407 (Chemical Carcinogenesis Research Information System (CCRIS), 2018) come the findings set out here.

SMILES strings stand for the structures. Activity calls are given as the source filed them. How the calls were made is not given here.

This data set has as its system CCRIS mutagenicity, Ames/micronucleus/aberration tests. In words: CCRIS mutagenicity studies.
Where [1] appears, read: Test System: AMES SALMONELLA TYPHIMURIUM, Strain/Indicator: TA98, Metabolic Activation: NONE, Method: STANDARD PLATE.
Setting [2] is: Test System: AMES SALMONELLA TYPHIMURIUM, Strain/Indicator: TA98, Metabolic Activation: RAT, LIVER, S-9, AROCLOR 1254, Method: STANDARD PLATE.
The mark [3] stands for this setting: Test System: AMES SALMONELLA TYPHIMURIUM, Strain/Indicator: TA100, Metabolic Activation: NONE, Method: STANDARD PLATE.
Setting [4] is: Test System: AMES SALMONELLA TYPHIMURIUM, Strain/Indicator: TA100, Metabolic Activation: RAT, LIVER, S-9, AROCLOR 1254, Method: STANDARD PLATE.
The mark [5] stands for this setting: Test System: MOUSE LYMPHOMA, Strain/Indicator: L5178Y (TK+/TK-), Metabolic Activation: NONE, Method: SUSPENSION/PLATE.
Setting [6] is: Test System: AMES SALMONELLA TYPHIMURIUM, Strain/Indicator: TA98, Metabolic Activation: NONE, Method: PREINCUBATION
The mark [7] stands for this setting: Test System: AMES SALMONELLA TYPHIMURIUM, Strain/Indicator: TA100, Metabolic Activation: NONE, Method: PREINCUBATION
The mark [8] stands for this setting: Test System: AMES SALMONELLA TYPHIMURIUM, Strain/Indicator: TA1535, Metabolic Activation: NONE, Method: STANDARD PLATE.
Setting [9] is: Test System: AMES SALMONELLA TYPHIMURIUM, Strain/Indicator: TA1535, Metabolic Activation: RAT, LIVER, S-9, AROCLOR 1254, Method: STANDARD PLATE.
Where [10] appears, read: Test System: AMES SALMONELLA TYPHIMURIUM, Strain/Indicator: TA1537, Metabolic Activation: NONE, Method: STANDARD PLATE.
Setting [11] is: Test System: AMES SALMONELLA TYPHIMURIUM, Strain/Indicator: TA1537, Metabolic Activation: RAT, LIVER, S-9, AROCLOR 1254, Method: STANDARD PLATE.
Setting [12] is: Test System: AMES SALMONELLA TYPHIMURIUM, Strain/Indicator: TA1538, Metabolic Activation: NONE, Method: STANDARD PLATE.
[13] abbreviates: Test System: AMES SALMONELLA TYPHIMURIUM, Strain/Indicator: TA1538, Metabolic Activation: RAT, LIVER, S-9, AROCLOR 1254, Method: STANDARD PLATE.

As to `Cc1ccc(NO)cc1[N+](=O)[O-]`, the mutagenic call (Test System: AMES SALMONELLA TYPHIMURIUM, Strain/Indicator: TA98, Metabolic Activation: NONE, Method: SUSPENSION/PLATE) is “inactive; negative”; the mutagenic call (Test System: AMES SALMONELLA TYPHIMURIUM, Strain/Indicator: TA98, Metabolic Activation: RAT, LIVER, S-9, PHENOBARBITAL AND 5,6-BENZOFLAVONE, Method: SUSPENSION/PLATE) was “inactive; negative”; the mutagenic call (Test System: AMES SALMONELLA TYPHIMURIUM, Strain/Indicator: TA100, Metabolic Activation: NONE, Method: SUSPENSION/PLATE) is “inactive; negative”; the mutagenic call (Test System: AMES SALMONELLA TYPHIMURIUM, Strain/Indicator: TA100, Metabolic Activation: RAT, LIVER, S-9, PHENOBARBITAL AND 5,6-BENZOFLAVONE, Method: SUSPENSION/PLATE) was “inactive; negative”.
With `O=C1Nc2ccc([N+](=O)[O-])cc2C1=O`, the mutagenic call by setting is: (Test System: AMES SALMONELLA TYPHIMURIUM, Strain/Indicator: TA98, Metabolic Activation: HAMSTER, LIVER, S-9, AROCLOR 1254, Method: STANDARD PLATE) “active; positive”; under setting [1], “active; positive”; under setting [2], “active; positive”; (Test System: AMES SALMONELLA TYPHIMURIUM, Strain/Indicator: TA100, Metabolic Activation: HAMSTER, LIVER, S-9, AROCLOR 1254, Method: STANDARD PLATE) “active; positive”; under setting [3], “active; positive”; under setting [4], “active; positive”. The mutagenic call reads like this: under setting [5], “active; positive. reevaluation of results: positive”; (Test System: MOUSE LYMPHOMA, Strain/Indicator: L5178Y (TK+/TK-), Metabolic Activation: RAT, LIVER, S-9, AROCLOR 1254, Method: SUSPENSION/PLATE) “active; positive. reevaluation of results: equivocal”.
Turning to `ClC(Cl)=C(Cl)c1c(Cl)c(Cl)c(Cl)c(Cl)c1Cl`, the mutagenic call under setting [1] is “inactive; negative”, the mutagenic call under setting [2] is “inactive; negative”, the mutagenic call under setting [3] was “inactive; negative” and the mutagenic call under setting [4] is “inactive; negative”.
`C[C@@H]1C[C@@H]([C@H](O)CC2CC(=O)NC(=O)C2)C(=O)[C@@H](C)C1`: the mutagenic call by setting is: (Test System: AMES SALMONELLA TYPHIMURIUM, Strain/Indicator: TA97, Metabolic Activation: HAMSTER, LIVER, S-9, AROCLOR 1254 (10 OR 30%), Method: PREINCUBATION) “inactive; negative”; (Test System: AMES SALMONELLA TYPHIMURIUM, Strain/Indicator: TA97, Metabolic Activation: NONE, Method: PREINCUBATION) “inactive; negative”; (Test System: AMES SALMONELLA TYPHIMURIUM, Strain/Indicator: TA97, Metabolic Activation: RAT, LIVER, S-9, AROCLOR 1254 (10 OR 30%), Method: PREINCUBATION) “inactive; negative”; (Test System: AMES SALMONELLA TYPHIMURIUM, Strain/Indicator: TA98, Metabolic Activation: HAMSTER, LIVER, S-9, AROCLOR 1254 (10 OR 30%), Method: PREINCUBATION) “inactive; negative”; under setting [6], “inactive; negative”; under setting [1], “inactive; negative”. Besides, the mutagenic call (Test System: AMES SALMONELLA TYPHIMURIUM, Strain/Indicator: TA98, Metabolic Activation: RAT, LIVER, S-9, AROCLOR 1254 (10 OR 30%), Method: PREINCUBATION) is “inactive; negative”; the mutagenic call (Test System: AMES SALMONELLA TYPHIMURIUM, Strain/Indicator: TA98, Metabolic Activation: RAT, LIVER, S-9, AROCLOR, Method: STANDARD PLATE) is “inactive; negative”; the mutagenic call (Test System: AMES SALMONELLA TYPHIMURIUM, Strain/Indicator: TA100, Metabolic Activation: HAMSTER, LIVER, S-9, AROCLOR 1254 (10 OR 30%), Method: PREINCUBATION) is “inactive; negative”; the mutagenic call under setting [7] was “inactive; negative”; the mutagenic call under setting [3] was “inactive; negative”; the mutagenic call (Test System: AMES SALMONELLA TYPHIMURIUM, Strain/Indicator: TA100, Metabolic Activation: RAT, LIVER, S-9, AROCLOR 1254 (10 OR 30%), Method: PREINCUBATION) is “inactive; negative”. The mutagenic call is “inactive; negative” (Test System: AMES SALMONELLA TYPHIMURIUM, Strain/Indicator: TA100, Metabolic Activation: RAT, LIVER, S-9, AROCLOR, Method: STANDARD PLATE); “inactive; negative” (Test System: AMES SALMONELLA TYPHIMURIUM, Strain/Indicator: TA1535, Metabolic Activation: HAMSTER, LIVER, S-9, AROCLOR 1254 (10 OR 30%), Method: PREINCUBATION); “inactive; negative” (Test System: AMES SALMONELLA TYPHIMURIUM, Strain/Indicator: TA1535, Metabolic Activation: NONE, Method: PREINCUBATION); “inactive; negative” (Test System: AMES SALMONELLA TYPHIMURIUM, Strain/Indicator: TA1535, Metabolic Activation: RAT, LIVER, S-9, AROCLOR 1254 (10 OR 30%), Method: PREINCUBATION); “inactive; negative” (Test System: AMES SALMONELLA TYPHIMURIUM, Strain/Indicator: TA1537, Metabolic Activation: HAMSTER, LIVER, S-9, AROCLOR 1254 (30%), Method: PREINCUBATION); “inactive; negative” (Test System: AMES SALMONELLA TYPHIMURIUM, Strain/Indicator: TA1537, Metabolic Activation: NONE, Method: PREINCUBATION). In addition, the mutagenic call runs as follows: (Test System: AMES SALMONELLA TYPHIMURIUM, Strain/Indicator: TA1537, Metabolic Activation: RAT, LIVER, S-9, AROCLOR 1254 (30%), Method: PREINCUBATION) “inactive; negative”; under setting [5], “active; positive”.
For the molecule `COc1nsc2c([N+](=O)[O-])cccc12`, under setting [3], the mutagenic call was “active; positive”.
Regarding `COc1ccc(Cc2nccc3cc(OC)c(OC)cc23)cc1OC`, under “Test System: AMES SALMONELLA TYPHIMURIUM, Strain/Indicator: TA100, Metabolic Activation: RAT, LIVER, S-9, PHENOBARBITAL AND BETA-NAPHTHOFLAVONE, Method: PREINCUBATION”, the mutagenic call is “active; positive”.
As for `Nc1cc([N+](=O)[O-])c(N)cc1Cl`, the mutagenic call is, setting by setting: under setting [1], “active; positive”; under setting [2], “active; positive”; under setting [3], “inactive; negative”; under setting [4], “inactive; negative”; under setting [8], “inactive; negative”; under setting [9], “inactive; negative”. Besides, the mutagenic call is “inactive; negative” under setting [10], “inactive; negative” under setting [11], “active; positive” under setting [12] and “active; positive” under setting [13].
On to `O=C1c2ccccc2C(=O)c2c1ccc(O)c2O`, for which the mutagenic call is “inactive; negative” under setting [6]; “inactive; negative” (Test System: AMES SALMONELLA TYPHIMURIUM, Strain/Indicator: TA98, Metabolic Activation: RAT, LIVER, S-9, PCB, Method: PREINCUBATION); “inactive; negative” under setting [7]; “inactive; negative” under setting [3]; “inactive; negative” under setting [4]; “inactive; negative” (Test System: AMES SALMONELLA TYPHIMURIUM, Strain/Indicator: TA100, Metabolic Activation: RAT, LIVER, S-9, PCB, Method: PREINCUBATION). The mutagenic call reads like this: under setting [8], “inactive; negative”; under setting [9], “inactive; negative”; under setting [10], “active; positive”; under setting [11], “active; positive”; (Test System: AMES SALMONELLA TYPHIMURIUM, Strain/Indicator: TA1537, Metabolic Activation: RAT, LIVER, S-9, Method: PREINCUBATION) “active; positive”; under setting [12], “inactive; negative”. For the same molecule, the mutagenic call by setting is: under setting [13], “inactive; negative”; (Test System: UDS RODENT HEPATOCYTES, Strain/Indicator: THY INCORP (NON-S-PHASE), Metabolic Activation: NONE, Method: AUTORADIOGRAPHY) “active; positive”.
